These results are taken from patent US10251835B2, “Cranial delivery of pharmaceuticals” (GLIA, LLC, priority 2013, dated 2019).

The test system of assay [1] is subject with left-side trigeminal neuralgia and facial droop. Kind of assay: Treatment of trigeminal neuralgia and facial palsy. Type of assay: in vivo, human. The note with it: progesterone 1% (1 mg) four times daily to forehead followed by 0.15 g ganciclovir (0.15% formulation) up to five times daily. The protocol:
A subject presented with left-side trigeminal neuralgia and left side facial droop of 10 years duration. Therapy was initiated by topically applying progesterone (1% by weight) equivalent to 1 mg four times daily to the patient's forehead. This was followed by application of 0.15 g ganciclovir (as a 0.15% by weight formulation) up to five times daily.

Assay [2] deals with patients with ocular discomfort resulting from dry eye. Kind of assay: Treatment of dry eye with topical progesterone applied cranially. The class given is in vivo, human.
Assay [3] relates to dogs with mucus discharge from the eyes. The experiment in a line: Treatment of dry eye in domestic animals. The class given is in vivo, dog. An excerpt:
A puggle presented with mucus discharge from the eyes. […] The owner reported that the dog has this problem spring and fall, which indicates it is allergic seasonal rhinitis. The reported use took place in the fall.
A bulldog diagnosed with Sjogren's syndrome had mucus discharge from the eyes.

Assay [4] concerns patients with dyslexia. Kind of assay: Treatment of dyslexia and impaired executive brain function exacerbated by traumatic brain injury. The class given is in vivo, human. The note with it: person. The protocol:
A patient had been diagnosed in childhood with dyslexia. Symptoms included unstable binocular fixation while reading, the inability without compensating to find the end of one line and beginning of the next, and double overlapping perception of lines of print. They were also unable to read aloud in a fluid manner.
The individual applied a topical gel containing 4% by weight progesterone (4 mg of drug) to the forehead area.
The application was repeated twice over the next few days and the patient tested themself by reading text.
Regular treatment was continued for 10 weeks with the 4% progesterone gel applied to the forehead twice daily. The patient reported that in living with dyslexia for 52 years, they had never experienced as much stress relief in their visual system after the treatment.
After 8 weeks of treatment, the individual was asked to read aloud a complex paragraph of 8 sentences from their computer screen.
Treatment was interrupted after 10 weeks to determine the duration of benefit.
Seven years prior to initiation of progesterone topical treatment, the patient had suffered traumatic brain injury (TBI) in an auto accident. They reported exacerbation of their vision problems as a result of the accident.
After the crash they suffered from post-traumatic stress disorder triggered by loud sounds. The patient could not even listen to music because it would induce nausea. Two months after initiation of the progesterone treatment, they regained a good deal of social conformability, improved their ability to organize thoughts, eliminated their disjointed thinking, and gained the ability to write coherently.
A person who had been diagnosed with severe reading problems in third grade was later recognized as having dyslexia. Their reading problems became exacerbated by an automobile accident in 1980, following six months of coma. In general reading was a chore. However they made a concerted effort to learn to read, starting with children's books, and is now able to read regular print. Reading issues were exemplified by the need to place a ruler below each line so that they can follow the line and find the next line, and seeing letters backwards. They are not able to read small print at all. About 4 years ago their vision became worse. They were prescribed glasses that they use during periods when vision is worse than usual, whether near, intermediate, or far in distance.
A 1% progesterone topical composition was applied to forehead. […] The effect lasted from the time of application, around 7:30 pm to bedtime at around 11 pm.

[5] abbreviates: 1% progesterone topical composition to forehead.

Molecules are shown by their SMILES. Entries after “also recorded” stand apart in the source; their conditions may differ.

As for `CC(=O)[C@H]1CC[C@H]2[C@@H]3CCC4=CC(=O)CC[C@]4(C)[C@H]3CC[C@]12C` [progesterone], the “facial muscles contracted for 10 years” value in assay [1] is “relaxation of facial muscles”. In addition, in assay [2] (1% progesterone TID), the Results result is “Stopped using lubricating drops. Redness,; also recorded: itching and scaly eyelids disappeared”. Further, the TBUT entry in assay [2] (subject 18, 1% progesterone 2-3 times/day, increased from 2) was “TBUT increased from 2 to 8. Long term”. Besides, the “time to effect on mucus discharge from the eyes” value in assay [3] (progesterone to the dog's forehead (puggle; bulldog with Sjogren's syndrome)) was at most 24 h. Moreover, in assay [3] (progesterone topical forehead treatment, daily), the “mucus discharge from the eyes” value is “the problem no longer recurred; also recorded: cessation of mucus discharge”. Moreover, in assay [4] (setting [5]), the “reading and vision (patient report)” value is “able to read without using; also recorded: distance vision also improved; also recorded: no longer bothered by the headlight glare; also recorded: Reapplication next morning restored vision improvements”; the “time until they could feel a clearing in their head” value was “About 5 minutes”. Moreover, the “reading ability and visual system (patient report)” value in assay [4] (4% progesterone gel to forehead, single applications then twice daily up to 10 weeks) was “effect lasting for hours; also recorded: slightly better and easier reading and line tracking; also recorded: lasted for about four hours; also recorded: able to track from one end of a line of text to the beginning of the next line without using a ruler; also recorded: read aloud with less choppiness; also recorded: accurate and fluid with only one word lapse”. Further, the “executive function and stress after traumatic brain injury” value in assay [4] (4% progesterone gel to forehead, two months) is given as “improved executive function; also recorded: much lower level of stress; also recorded: ability to do simple math in their head”. The “time until eyes relaxed into alignment” value in assay [4] (gel 4% progesterone (4 mg) to forehead) is at most 60 s. The “duration of benefit after interruption” value in assay [4] (ten days after stopping 10 weeks of 4% progesterone gel) was “continued benefit with only slight degradation”.
